Test results taken from patent US7985417B2, “Method of lipid structure preparation” (Yissum Research Development Company of the Hebrew …, priority 2004, dated 2011).

Columns and labels:
[1] = Apparent pKa of C17HC in EPC liposomes before and after insertion of PEG-DSPE; assay type: physicochemical
Procedure: (§1) More generally, and as noted above, the method of microwave irradiation can also be used to insert a lipid-polymer (“lipopolymer”), that is a lipopolymer lacking any ligand, into a pre-formed lipid structure, such as liposomes. This general concept was illustrated in another study, described in Example 4, where liposomes having a lipid bilayer of egg phosphatidylcholine and including a fluorescent label were incubated with a micellar suspension of the lipopolymer DSPE-PEG. Two studies were done, using two different fluorescent labels, shown in FIGS. 4A-4B, incorporated into the liposome lipid bilayers. […] A small amount of one of the fluorescent lipidic labels was included in the lipids during formation of the liposomes.
(§2) Liposomes comprised of egg phosphatidylcholine (EPC) and labeled with a pH-sensitive probe, 7-heptadecyl-4-hydroxycoumarin (C17HC) (FIG. 4A) or 1,2-dioleoyl-sn-glycero-3-phosphoethanolamine (DOPE-HC) (FIG. 4B), were prepared by thin film hydration followed by down sizing using extrusion. Briefly, EPC and one of the pH-sensitive probes were dissolved in an organic solvent in a round-bottomed flask. The solvent was removed by rotary evaporation to form a thin lipid film that was hydrated with an aqueous buffer to form multilamellar liposomes. The liposome suspension was sized by extrusion through polycarbonate membranes to an average diameter of 100 nm.
(§3) A conjugate of DSPE-PEG (PEG MW 2000 Daltons) was obtained commercially. A micellar suspension of the DSPE-PEG conjugate was mixed with a suspension of the labeled-EPC liposomes were incubated for 90 seconds in the presence of microwave irradiation in a conventional microwave oven operated at 60% power (Spectra, 850 W capacity). The extent of conjugate insertion was determined by the shift in the apparent pKa of HC moiety.
With respect to the liposomes labeled with C17HC, the apparent pKa of C17HC was calculated from the change of the ratio of excitation wavelengths 380/330 (emission wavelength 450 nm) as a function of bulk pH (Zuidam and Barenholz, Biochim Biophys Acta, 1329(2):211-22 (1997)). Fluorescence was measured using an LS-50B luminescence spectrometer (Perkin Elmer, Norwalk, Conn.). As a comparative reference, the insertion of DSPE-PEG into the same liposomes at room temperature was also measured.

[2] = Apparent pKa of DOPE-HC in EPC liposomes before and after insertion of PEG-DSPE; assay type: physicochemical
Procedure: as §1
The DOPE-HC-labeled egg PC liposomes were incubated with DSPE-PEG (MW 2000 Daltons) conjugates in the presence of microwave irradiation for 90 seconds. The extent of lipopolymer insertion was calculated from the apparent pKa, as described in Example 4.
Also in this study, a sample of the EPC liposomes was combined with free polyethylene glycol (PEG, MW 2000 Daltons) and exposed for 90 seconds to microwave irradiation in the microwave oven at 60% capacity (850 W total capacity). No insertion of free PEG (i.e., PEG lacking a lipidic or hydrophobic portion) into liposomes was observed.
as §2, §3
With respect to the liposomes labeled with DOPE-HC, the apparent pKa of DOPE-HC was calculated from the change of the ratio of excitation wavelengths 370/408 (emission wavelength 480 nm) as a function of bulk pH. Fluorescence was measured using an LS-50B luminescence spectrometer (Perkin Elmer, Norwalk, Conn.) immediately after exposure of microwave irradiation and 48 hours after exposure.

[3] = EPC with PEG-DSPE (90 sec in MW) after 48 hours
[4] = EPC with PEG-DSPE (90 sec in MW) immediately

Structure (SMILES)	apparent pKa [1, 3]	apparent pKa [1, 4]	apparent pKa ([1]; EPC with PEG-DSPE (5 hours at RT))	apparent pKa ([1]; EPC with PEG-DSPE (5 hours at RT) after 48 hours)	apparent pKa ([1]; EPC without PEG-DSPE)	apparent pKa ([2]; EPC with PEG (90 sec in MW) after 48 hours)	apparent pKa ([2]; EPC with PEG (90 sec in MW) immediately)	apparent pKa [2, 3]	apparent pKa [2, 4]	apparent pKa ([2]; EPC without PEG-DSPE or 2000PEG, after 48 hours)	apparent pKa ([2]; EPC without PEG-DSPE or PEG)
CCCCCCCCCCCCCCCCCc1ccc2c(O)cc(=O)oc2c1 [C17HC, 7-heptadecyl-4-hydroxycoumarin]	10.28	9.98	10.13	10.14	9.41	–	–	–	–	–	–
CCCCCCCC/C=C\CCCCCCCC(=O)OC[C@H](COP(=O)(O)OCCN)OC(=O)CCCCCCC/C=C\CCCCCCCC [DOPE-HC, 1,2-dioleoyl-sn-glycero-3-phosphoethanolamine]	–	–	–	–	–	9.08	9.09	9.38	9.26	9.28	9.12
